Test results published in patent US20050124497A1, “Delta1-pyrrolines and their use as pest control agents” (priority 2002, published 2005).
Where two headings read alike, the source gives them in different places. One block for each compound: values may come before it.

Key:
[1] = test system: Meloidogyne incognita egg/larvae suspension; test: Meloidogyne test; assay type: in vivo; details: 20 ppm active compound, lettuce in sand, nematicidal action by gall formation
Method: To produce a suitable preparation of active compound, 1 part by weight of active compound is mixed with the stated amounts of solvent and emulsifier, and the concentrate is diluted with water to the desired concentration.
Containers are filled with sand, solution of active compound, Meloidogyne incognita egg/larvae suspension and lettuce seeds. The lettuce seeds germinate and the plants develop. On the roots, galls are formed.
After the desired period of time, the nematicidal action is determined in % by gall formation. 100% means that no galls were found; 0% means that the number of galls on the treated plants corresponds to that of the untreated control.

[2] = test system: caterpillars of the armyworm (Spodoptera frugiperda); test: Spodoptera frugiperda test; assay type: in vivo; details: 168 h, read-out: Efficacy in % after 7 d; for pest or weed control at 100 ppm: 100 ppm active compound
Method: Spodoptera Frugiperda Test
(§1) To produce a suitable preparation of active compound, 1 part by weight of active compound is mixed with the stated amounts of solvent and emulsifier, and the concentrate is diluted with emulsifier-containing water to the desired concentration.
Cabbage leaves (Brassica oleracea) are treated by being dipped into the preparation of active compound of the desired concentration and are populated with caterpillars of the armyworm (Spodoptera frugiperda) while the leaves are still moist.
(§2) After the desired period of time, the kill in % is determined. 100% means that all caterpillars have been killed; 0% means that none of the caterpillars have been killed.

[3] = test system: greenhouse red spider mite (Tetranychus urticae); test: Tetranychus test (OP-resistant/dip treatment); assay type: in vivo; details: 168 h, 100 ppm active compound, bean plants dipped, all stages, after 7 d, read-out: Efficacy in % after 7 d
Method: Tetranychus Test (OP-Resistant/Dip Treatment)
as §1
Bean plants (Phaseolus vulgaris) which are heavily infested by all stages of the greenhouse red spider mite (Tetranychus urticae) are treated by being dipped into a preparation of active compound of the desired, concentration.
After the desired period of time, the effect in % is determined. 100% means that all spider mites have been killed; 0% means that none of the spider mites have been killed.

[4] = log P by HPLC (reversed-phase C18), acidic range pH 2.3; assay type: physicochemical; details: reversed-phase C18 HPLC column; pH 2.3, 0.1% aqueous phosphoric acid/acetonitrile, 43° C.
Method: The log P values given in the Tables and Preparation Examples above are determined in accordance with EEC Directive 79/831 Annex V.A8 by HPLC (High Performance Liquid Chromatography) using a reversed-phase column (C 18). Temperature: 43° C.
The determination in the acidic range is carried out at pH 2.3 using the mobile phases 0.1% aqueous phosphoric acid and acetonitrile; linear gradient from 10% acetonitrile to 90% acetonitrile. In the Tables, the values are marked a).
Calibration is carried out using unbranched alkan-2-ones (of 3 to 16 carbon atoms) with known log P values (determination of the log P values by retention times using linear interpolation between two successive alkanones).

[5] = test system: Heliothis armigera caterpillars; test: Heliothis armigera test; assay type: in vivo; details: 100 ppm active compound, soya bean shoots dipped, kill after 7 d
Method: Solvent: 7 parts by weight of dimethylformamide
Emulsifier: 2 parts by weight of alkylaryl polyglycol ether
as §1
Soya bean shoots (Glycine max) are treated by being dipped into the preparation of active compound of the desired concentration and are populated with Heliothis armigera caterpillars while the leaves are still moist.
as §2

[6] = test system: larvae of the mustard beetle (Phaedon cochleariae); test: Phaedon larvae test; assay type: in vivo; details: cabbage leaves dipped, kill after 7 d
Method: Phaedon Larvae Test [table] To produce a suitable preparation of active compound, 1 part by weight of active compound is mixed with the stated amounts of solvent and emulsifier, and the concentrate is diluted with emulsifier-containing water to the desired concentration. Cabbage leaves (Brassica oleracea) are treated by being dipped into the preparation of active compound of the desired concentration and are populated with larvae of the mustard beetle (Phaedon cochleariae) while the leaves are still moist.

[7] = test system: caterpillars of the armyworm (Spodoptera exigua); test: Spodoptera exigua test; assay type: in vivo; details: 100 ppm active compound, cabbage leaves dipped, kill after 7 d
Method: as §1
Cabbage leaves (Brassica oleracea) are treated by being dipped into the preparation of active compound of the desired concentration and are populated with caterpillars of the armyworm (Spodoptera exigua) while the leaves are still moist.
as §2

[8] = cabbage leaves dipped, kill after 7 d
[9] = 500 ppm active compound, cabbage leaves dipped, kill after 7 d

Structure (SMILES): Cc1cc2oc(-c3ccc(C4CCC(c5c(F)cccc5F)=N4)cc3)nc2c(C)c1Cl (stereo not shown)
Efficacy in % after 7 d [1]: 98%

Structure (SMILES): CNS(=O)(=O)c1cc2oc(-c3ccc(C4CCC(c5c(F)cccc5F)=N4)cc3)nc2cc1Cl (stereo not shown)
Efficacy in % after 7 d [1]: 80%

Structure (SMILES): O=[N+]([O-])c1cc2oc(-c3ccc(C4CCC(c5c(F)cccc5F)=N4)cc3)nc2cc1Cl (stereo not shown)
pest or weed control at 500 ppm ([2]; in Brassica oleracea): 100%

Structure (SMILES): Fc1cccc(F)c1C1=NC(c2ccc(-c3nc4cc(Cl)ccc4o3)cc2)CC1 (stereo not shown)
pest or weed control at 100 ppm [2, 8]: 100%

Structure (SMILES): Cc1ccccc1C1=NC(c2ccc(-c3nc4ccccc4o3)cc2)CC1 (stereo not shown)
pest or weed control at 100 ppm [2, 8]: 100%

Structure (SMILES): Fc1cccc(F)c1C1=NC(c2ccc(-c3nc4cc(Cl)cc(Cl)c4o3)cc2)CC1 (stereo not shown)
pest or weed control at 100 ppm [2, 8]: 100%

Structure (SMILES): Fc1cc(-c2nc3ccccc3o2)ccc1C1CCC(c2c(F)cccc2F)=N1 (stereo not shown)
pest or weed control at 100 ppm [3]: 95%

Structure (SMILES): Fc1cccc(F)c1C1=NC(c2ccc(-c3nc4cc(C(F)(F)F)cc(Cl)c4o3)cc2)CC1 (stereo not shown)
pest or weed control at 100 ppm [3]: 95%

Structure (SMILES): Fc1cccc(F)c1C1=NC(c2ccc(-c3nc4cc(C(F)(F)F)cc(C(F)(F)F)c4o3)cc2)CC1 (stereo not shown)
pest or weed control at 100 ppm [3]: 100%

chromatographic logP [4]: 5.11
Structure (SMILES): CC(C)(C)c1ccc2oc(-c3ccc(C4CCC(c5c(F)cccc5F)=N4)cc3)nc2c1 (stereo not shown) [Example 1, 5-tert-butyl-2-{4-[5-(2,6-difluorophenyl)-3,4-dihydro-2H-pyrrol-2-yl]phenyl}-1,3-benzoxazole]

chromatographic logP [4]: 4.98
Structure (SMILES): Fc1cccc(F)c1C1=NC(c2ccc(-c3nc4cc(SC(F)(F)F)ccc4o3)cc2)CC1 (stereo not shown) [Example 2]

Structure (SMILES): Fc1cccc(F)c1C1=NC(c2ccc(-c3nc4ccccc4o3)cc2)CC1 (stereo not shown) [Example 3, 2-{4-[5-(2,6-difluorophenyl)-3,4-dihydro-2H-pyrrol-2-yl]phenyl}-1,3-benzoxazole]
chromatographic logP [4]: 3.22

chromatographic logP [4]: 2.06
Structure (SMILES): Fc1cccc(F)c1C1=NC(c2ccc(-c3nc4ncccc4o3)cc2)CC1 (stereo not shown) [Example 4, 2-{4-[5-(2,6-difluorophenyl)-3,4-dihydro-2H-pyrrol-2-yl]-phenyl}[1,3]oxazole[4,5-b]pyridine]

chromatographic logP [4]: 3.53
Structure (SMILES): Fc1ccc2nc(-c3ccc(C4CCC(c5c(F)cccc5F)=N4)cc3)oc2c1 (stereo not shown) [Example 5, 2-{4-[5-(2,6-difluorophenyl)-3,4-dihydro-2H-pyrrol-2-yl]phenyl}-6-fluoro-1,3-benzoxazole]

chromatographic logP [4]: 3.22
Structure (SMILES): CC(C)(C)c1ccc(O)c(NC(=O)c2ccc(C3CCC(c4c(F)cccc4F)=N3)cc2)c1 (stereo not shown) [II-1, N-(5-tert-btyl-2-hydroxyphenyl)-4-[5-(2,6-difluorohenyl)-3,4-dihydro-2H-pyrrol-2-yl]benzamide]

chromatographic logP [4]: 1.16
Structure (SMILES): O=C(Nc1ncccc1O)c1ccc(C2CCC(c3c(F)cccc3F)=N2)cc1 (stereo not shown) [II-4, 4-[5-(2,6-difluorophenyl)-3,4-dihydro-2H-pyrrol-2-yl]-N-(3-hydroxy-2-pyridinyl)benzamide]

Structure (SMILES): Fc1cccc(F)c1C1=NC(c2ccc(-c3nc4cc(C(F)(F)F)c(Cl)cc4o3)cc2)CC1 (stereo not shown) [drawing 27]
Efficacy in % after 7 d [5]: 100%

Structure (SMILES): Fc1cccc(F)c1C1=NC(c2ccc(-c3nc4cc(OC(F)(F)F)ccc4o3)cc2)CC1 (stereo not shown) [drawing 28]
Efficacy in % after 7 d [5]: 100%

Structure (SMILES): Fc1cccc(F)c1C1=NC(c2ccc(-c3nc4cc(-c5ccccc5)ccc4o3)cc2)CC1 (stereo not shown) [drawing 29]
Efficacy in % after 7 d [5]: 100%

Structure (SMILES): Fc1cc(-c2nc3cc(OC(F)(F)F)ccc3o2)ccc1C1CCC(c2c(F)cccc2F)=N1 (stereo not shown) [drawing 30]
Efficacy in % after 7 d [5]: 100%

Structure (SMILES): Fc1cc(-c2nc3cc(Cl)ccc3o2)ccc1C1CCC(c2c(F)cccc2F)=N1 (stereo not shown) [drawing 31]
Efficacy in % after 7 d [5]: 100%

Structure (SMILES): Fc1cccc(F)c1C1=NC(c2ccc(-c3nc4cc(C(F)(F)F)ccc4s3)cc2)CC1 (stereo not shown) [drawing 32]
Efficacy in % after 7 d [5]: 100%

Structure (SMILES): Fc1cccc(F)c1C1=NC(c2ccc(-c3nc4cc(Br)ccc4o3)cc2)CC1 (stereo not shown) [drawing 33]
Efficacy in % after 7 d [5]: 100%

Structure (SMILES): O=C(Nc1ncccc1O)c1ccc(C2CCC(c3c(F)cccc3F)=N2)cc1 (stereo not shown) [drawing 34]
Efficacy in % after 7 d [1]: 95%

Structure (SMILES): Fc1cccc(F)c1C1=NC(c2ccc(-c3nc4ccccc4s3)cc2)CC1 (stereo not shown) [drawing 35]
Efficacy in % after 7 d [1]: 80%

Structure (SMILES): Fc1cccc(F)c1C1=NC(c2ccc(-c3nc4cc(Br)ccc4o3)cc2)CC1 (stereo not shown) [drawing 38]
Efficacy in % after 7 d [1]: 80%

Structure (SMILES): CC(C)(C)c1ccc2oc(-c3ccc(C4CCC(c5c(F)cccc5F)=N4)cc3)nc2c1 (stereo not shown) [drawing 39]
Efficacy in % after 7 d ([6]; 500 ppm active compound): 100%

Structure (SMILES): Fc1cccc(F)c1C1=NC(c2ccc(-c3nc4cc(SC(F)(F)F)ccc4o3)cc2)CC1 (stereo not shown) [drawing 40]
Efficacy in % after 7 d ([6]; 500 ppm active compound): 100%

Structure (SMILES): Fc1cccc(F)c1C1=NC(c2ccc(-c3nc4cc(C(F)(F)F)c(Cl)cc4o3)cc2)CC1 (stereo not shown) [drawing 41]
Efficacy in % after 7 d ([6]; 100 ppm active compound): 100%

Structure (SMILES): Fc1cccc(F)c1C1=NC(c2ccc(-c3nc4cc(OC(F)(F)F)ccc4o3)cc2)CC1 (stereo not shown) [drawing 42]
Efficacy in % after 7 d ([6]; 100 ppm active compound): 100%

Structure (SMILES): Fc1cccc(F)c1C1=NC(c2ccc(-c3nc4cc(-c5ccccc5)ccc4o3)cc2)CC1 (stereo not shown) [drawing 43]
Efficacy in % after 7 d ([6]; 100 ppm active compound): 100%

Structure (SMILES): Fc1cc(-c2nc3cc(OC(F)(F)F)ccc3o2)ccc1C1CCC(c2c(F)cccc2F)=N1 (stereo not shown) [drawing 44]
Efficacy in % after 7 d ([6]; 100 ppm active compound): 100%

Structure (SMILES): Fc1cc(-c2nc3cc(-c4ccccc4)ccc3o2)ccc1C1CCC(c2c(F)cccc2F)=N1 (stereo not shown) [drawing 45]
Efficacy in % after 7 d ([6]; 100 ppm active compound): 100%

Structure (SMILES): Fc1cc(-c2nc3cc(-c4ccccc4)ccc3o2)ccc1C1CCC(c2c(F)cccc2F)=N1 (stereo not shown) [drawing 47]
Efficacy in % after 7 d [7]: 100%

Structure (SMILES): Fc1cccc(F)c1C1=NC(c2ccc(-c3nc4ccccc4o3)cc2)CC1 (stereo not shown) [drawing 48]
pest or weed control at 500 ppm ([2]; in Brassica oleracea): 100%

Structure (SMILES): Fc1cccc(F)c1C1=NC(c2ccc(-c3nc4ncccc4o3)cc2)CC1 (stereo not shown) [drawing 49]
pest or weed control at 500 ppm [2, 9]: 100%

Structure (SMILES): CC(C)(C)c1ccc2oc(-c3ccc(C4CCC(c5c(F)cccc5F)=N4)cc3)nc2c1 (stereo not shown) [drawing 50]
pest or weed control at 500 ppm [2, 9]: 100%

Structure (SMILES): Fc1cccc(F)c1C1=NC(c2ccc(-c3nc4cc(SC(F)(F)F)ccc4o3)cc2)CC1 (stereo not shown) [drawing 52]
pest or weed control at 500 ppm [2, 9]: 100%

Structure (SMILES): Fc1ccc2nc(-c3ccc(C4CCC(c5c(F)cccc5F)=N4)cc3)oc2c1 (stereo not shown) [drawing 54]
pest or weed control at 500 ppm [2, 9]: 100%

Structure (SMILES): CC(C)(C)c1ccc(O)c(NC(=O)c2ccc(C3CCC(c4c(F)cccc4F)=N3)cc2)c1 (stereo not shown) [drawing 55]
pest or weed control at 500 ppm [2, 9]: 100%

Structure (SMILES): CN(C)S(=O)(=O)c1cc2oc(-c3ccc(C4CCC(c5c(F)cccc5F)=N4)cc3)nc2cc1Cl (stereo not shown) [drawing 58]
pest or weed control at 100 ppm [2, 8]: 100%

Structure (SMILES): Fc1cc(-c2nc3cc(Cl)ccc3o2)ccc1C1CCC(c2c(F)cccc2F)=N1 (stereo not shown) [drawing 59]
pest or weed control at 100 ppm [2, 8]: 100%

Structure (SMILES): Fc1cccc(F)c1C1=NC(c2ccc(-c3nc4cc(C(F)(F)F)ccc4s3)cc2)CC1 (stereo not shown) [drawing 60]
pest or weed control at 100 ppm [2, 8]: 100%

Structure (SMILES): Fc1cccc(F)c1C1=NC(c2ccc(-c3nc4cc(C(F)(F)F)c(Cl)cc4o3)cc2)CC1 (stereo not shown) [drawing 63]
pest or weed control at 100 ppm [3]: 98%

Structure (SMILES): CN(C)S(=O)(=O)c1cc2oc(-c3ccc(C4CCC(c5c(F)cccc5F)=N4)cc3)nc2cc1Cl (stereo not shown) [drawing 64]
pest or weed control at 100 ppm [3]: 90%

Structure (SMILES): Fc1cccc(F)c1C1=NC(c2ccc(-c3nc4ccccc4s3)cc2)CC1 (stereo not shown) [drawing 65]
pest or weed control at 100 ppm [3]: 99%

Structure (SMILES): Fc1cc(-c2nc3cc(Cl)ccc3o2)ccc1C1CCC(c2c(F)cccc2F)=N1 (stereo not shown) [drawing 67]
pest or weed control at 100 ppm [3]: 95%

Structure (SMILES): Fc1cc(-c2nc3cc(-c4ccccc4)ccc3o2)ccc1C1CCC(c2c(F)cccc2F)=N1 (stereo not shown) [drawing 68]
pest or weed control at 100 ppm [3]: 99%

Structure (SMILES): Fc1cccc(F)c1C1=NC(c2ccc(-c3nc4cc(C(F)(F)F)ccc4s3)cc2)CC1 (stereo not shown) [drawing 69]
pest or weed control at 100 ppm [3]: 90%
